This note sets out measurements from patent US20140128367A1, “CYCLOALKYL-FUSED TETRAHYDROQUINOLINES AS CRTH2 RECEPTOR MODULATORS” (Merck Sharp & Dohme Corp., priority 2011, published 2014).

Each structure is given as a SMILES string. Like-named read-outs stand apart in the source and are kept apart here.

In experiment [1] the target is T1, hCRTH2 (Homo sapiens, UniProt Q9Y5Y4).
T1 sequence (Q9Y5Y4 1-395): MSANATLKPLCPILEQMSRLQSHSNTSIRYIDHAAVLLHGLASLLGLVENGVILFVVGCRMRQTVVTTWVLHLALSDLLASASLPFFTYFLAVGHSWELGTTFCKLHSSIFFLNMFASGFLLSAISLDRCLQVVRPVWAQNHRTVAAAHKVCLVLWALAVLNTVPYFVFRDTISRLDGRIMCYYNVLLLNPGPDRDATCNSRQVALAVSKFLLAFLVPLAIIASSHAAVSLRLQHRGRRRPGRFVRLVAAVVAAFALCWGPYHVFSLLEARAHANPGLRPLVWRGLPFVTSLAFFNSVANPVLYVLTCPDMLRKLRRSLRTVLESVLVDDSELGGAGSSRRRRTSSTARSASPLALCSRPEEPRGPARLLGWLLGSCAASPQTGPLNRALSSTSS
Further details: expressed in transfected cells; host or cells: HEK (human embryonic kidney) cell line expressing hCRTH2. To be noted: Radioligand Binding Assay B, 0.7 nM [3H]PGD2, HEK-hCRTH2 membranes; rated A-D.
Method: Radioligand Binding Assay B.
Competing ligands were diluted in dimethylsulfoxide (Me2SO) that was kept constant at 1% (v/v) of the final incubation volume. The reaction was initiated by the addition of 8-20 μg of membrane protein prepared from a HEK-hCRTH2 cell line. Total and non-specific binding were determined in the absence and the presence of 10 μM PGD2, respectively. Under these conditions, specific binding (total minus non-specific) of the radioligand to the receptor reached equilibrium within 50 min and was stable up to 180 min. The reaction was routinely conducted for 60 min at room temperature and terminated by rapid filtration through prewetted Unifilters GF/C (Packard), using a Tomtec MachIII semi-automated harvester (for HEK-hCRTH2). The filters were then washed with 4 mL of the same buffer and residual radioligand bound to the filter was determined by liquid scintillation counting following equilibration in 25 μl Ultima Gold F™ (Unifilter) (Packard).

Experiment [2] addresses T1, hCRTH2. Description: biochemical. To be noted: Radioligand Binding Assay A, 3.0 nM [3H]PGD2, HEK-hCRTH2 membranes.
Method: Radioligand Binding Assay A.
Competing ligands were diluted in dimethylsulfoxide (Me2SO) that was kept constant at 1% (v/v) of the final incubation volume. The reaction was initiated by the addition of 8-20 μg of membrane protein prepared from a human embryonic kidney (HEK)-hCRTH2 cell line. Total and non-specific binding were determined in the absence and the presence of 10 μM PGD2, respectively. Under these conditions, specific binding (total minus non-specific) of the radioligand to the receptor reached equilibrium within 50 min and was stable up to 180 min. The reaction was routinely conducted for 60 min at room temperature and terminated by rapid filtration through prewetted (0.3% polyethyleneimine) 96-well printed Filtermate™ (Wallac) using a Tomtec® harvester (Hamden, Conn.). After washing with cold buffer, the filter was dried for 2 minutes in microwave, and Meltilex Scintillator sheet (Wallac) was melted on for 2 min.

In general, Ki refers to a measure of affinity in units of concentration, obtained from inhibition or displacement. Take `O=C(O)CCC(=O)N(C1CC1)[C@@H]1c2ccc(F)cc2N(C(=O)c2ccccc2)[C@@H]2CCC[C@@H]21` (racemic) [16D, 4-{cyclopropyl[cis, cis-6-fluoro-4-(phenylcarbonyl)-2,3,3a,4,9,9a-hexahydro-1H-cyclopenta[b]quinolin-9-yl]amino}-4-oxobutanoic acid]: on hCRTH2 [1], the Ki lay in the range of 20.1 to 200 nM.

Regarding `CCc1ccc(C(=O)N2c3cc(Cl)ccc3C(N(C(=O)CCC(=O)O)C3CCC3)C3CCCC32)cc1` (single isomer, unassigned) [17CQ, 4-[[cis, cis-6-chloro-4-(4-ethylbenzoyl)-2,3,3a,4,9,9a-hexahydro-1H-cyclopenta[b]quinolin-9-yl]cyclobutylamino]-4-oxobutanoic acid], the affinity on hCRTH2 [2], expressed as Ki, was 2.4 nM.
